Laboratory results as given in ChEMBL document CHEMBL5370568, “Discovery of Coixol Derivatives as Potent Anti-inflammatory Agents” (J Nat Prod, 2023).
The source made the active and inactive calls. The calls are words filed in the database; no cut-off is given here.

Experiments:
RAW264.7 [1] = assay: Antiinflammatory activity in LPS-induced mouse RAW264.7 cells assessed as inhibition of NO production at 20 uM pretreated for 1 hr followed by LPS stimulation and measured after 24 hrs by griess reagent based assay relative to control; format: functional; settings: time 25 hrs
[2] = Cytotoxicity against mouse RAW264.7 cells incubated for 24 hrs by MTT assay; format: toxicity, cell-based
[3] = Inhibition of IL-1beta production in LPS-induced mouse RAW264.7 cells pretreated for 1 hr followed by LPS stimulation and measured after 24 hrs by ELISA; format: functional, cell-based
[4] = Inhibition of IL-6 production in LPS-induced mouse RAW264.7 cells pretreated for 1 hr followed by LPS stimulation and measured after 24 hrs by ELISA; format: functional, cell-based
[5] = Inhibition of TNF-alpha production in LPS-induced mouse RAW264.7 cells pretreated for 1 hr followed by LPS stimulation and measured after 24 hrs by ELISA; format: functional, cell-based
RAW264.7 [6] = assay: Antiinflammatory activity in LPS-induced mouse RAW264.7 cells assessed as inhibition of NO production pretreated for 1 hr followed by LPS stimulation and measured after 24 hrs by griess reagent based assay; format: functional, cell-based
Mus musculus [7] = assay: Antiinflammatory activity in ICR mouse model of xylene-induced auricle edema assessed as inhibition rate of ear swelling at 20 mg/kg, IG pretreated for 1 hr followed by xylene addition and measured after 1 hr relative to control; format: functional; settings: po, time 2 hrs
HEK-293T = assay: Inhibition of NO production in HEK293T cells expressing iNOS assessed as effect on iNOS dimerization at 0.1 to 10 uM measured after 24 hrs by griess reagent based assay; format: functional, cell-based; settings: Homo sapiens, dose 0.1-10 µM
Mus musculus [8] = assay: Antiinflammatory activity in ICR mouse model of xylene-induced auricle edema assessed as average weight of right ear at 20 mg/kg, IG pretreated for 1 hr followed by xylene addition and measured after 1 hr (reference value: 11.5 +/- 2.1 mg); format: functional; settings: time 2 hrs
Mus musculus [9] = assay: Antiinflammatory activity in ICR mouse model of xylene-induced auricle edema assessed as average weight of right ear at 40 mg/kg, IG pretreated for 1 hr followed by xylene addition and measured after 1 hr (reference value: 11.5 +/- 2.1 mg); format: functional; settings: time 2 hrs
Mus musculus [10] = assay: Antiinflammatory activity in ICR mouse model of xylene-induced auricle edema assessed as average weight of left ear at 20 mg/kg, IG pretreated for 1 hr followed by xylene addition and measured after 1 hr (reference value: 6.9 +/- 0.7 mg); format: functional; settings: time 2 hrs
Mus musculus [11] = assay: Antiinflammatory activity in ICR mouse model of xylene-induced auricle edema assessed as swelling degree at 40 mg/kg, IG pretreated for 1 hr followed by xylene addition and measured after 1 hr (reference value: 4.6 +/- 2 mg); format: functional; settings: time 2 hrs
RAW264.7 [12] = assay: Inhibition of NFkappaB signaling pathway in LPS-induced mouse RAW264.7 cells assessed as reduction in IkappaBalpha phosphorylation pretreated for 2 hrs followed by LPS stimulation and measured after 10 mins by Western blot analysis; format: cell-based; settings: dose 0.5-2 µM, time 130.0 min
Mus musculus [13] = assay: Antiinflammatory activity in ICR mouse model of xylene-induced auricle edema assessed as inhibition rate of ear swelling at 40 mg/kg, IG pretreated for 1 hr followed by xylene addition and measured after 1 hr relative to control; format: functional; settings: po, time 2 hrs
Mus musculus [14] = assay: Antiinflammatory activity in ICR mouse model of xylene-induced auricle edema assessed as average weight of left ear at 40 mg/kg, IG pretreated for 1 hr followed by xylene addition and measured after 1 hr (reference value: 6.9 +/- 0.7 mg); format: functional; settings: time 2 hrs
Mus musculus [15] = assay: Antiinflammatory activity in ICR mouse model of xylene-induced auricle edema assessed as swelling degree at 20 mg/kg, IG pretreated for 1 hr followed by xylene addition and measured after 1 hr (reference value: 4.6 +/- 2 mg); format: functional; settings: time 2 hrs
RAW264.7 [16] = assay: Antiinflammatory activity in LPS-induced mouse RAW264.7 cells assessed as inhibition of NO production by measuring downregulation of iNOS protein expression at 2 to 8 uM pretreated for 2 hr followed by LPS stimulation and measured after 24 hrs by Western blot analysis; format: functional, cell-based; settings: dose 2-8 µM, time 26.0 hrs
RAW264.7 [17] = assay: Antiinflammatory activity in LPS-induced mouse RAW264.7 cells assessed as inhibition of NO production incubated for 24 hrs in presence of LPS by griess reagent based assay; format: functional, cell-based; settings: RAW264.7, 24 h
[18] = Inhibition of IL-1beta production in LPS-induced mouse RAW264.7 cells incubated for 24 hrs in presence of LPS by ELISA; format: functional, cell-based; settings: RAW264.7, 24 h
[19] = Inhibition of IL-6 production in LPS-induced mouse RAW264.7 cells incubated for 24 hrs in presence of LPS by ELISA; format: functional, cell-based; settings: RAW264.7, 24 h
Mus musculus [20] = assay: Antiinflammatory activity in ICR mouse model of xylene-induced ear edema assessed as edema inhibition rate at 25 mg/kg, po pretreated for 1 hr followed by xylene addition and measured after 0.5 hr relative to control; format: functional; settings: time 1.5 hrs
[21] = Inhibition of TNF-alpha production in LPS-induced mouse RAW264.7 cells incubated for 24 hrs in presence of LPS by ELISA; format: functional, cell-based; settings: RAW264.7, 24 h
RAW264.7 [22] = assay: Antiinflammatory activity in LPS-induced mouse RAW264.7 cells assessed as inhibition of NO production by measuring downregulation of iNOS protein expression at 0.5 to 10 uM pretreated for 2 hr followed by LPS stimulation and measured after 24 hrs by Western blot analysis; format: functional, cell-based; settings: dose 0.5-10 µM, time 26.0 hrs

Compound	inhibition at 20 µM (RAW264.7 [1]) [%]	IC50 at 24 h [2] [µM]	also measured
COc1ccc(/C=C/C(=O)NCCn2c(=O)oc3cc(OC)ccc32)cc1	45.9	68.8	–
COc1cccc(/C=C/C(=O)NCCn2c(=O)oc3cc(OC)ccc32)c1	9.3	> 100	–
COc1ccc2[nH]c(=O)oc2c1 [COIXOL]	7.4	> 100	IC50 [3]: 66.4 µM; IC50 [4]: 48.9 µM; IC50 [5]: 31.2 µM
COc1ccc(C(C)=O)c(OCCNC(=O)/C=C/c2cc(OC)c(OC)c(OC)c2)c1	88.8	–	–
COc1ccc2c(c1)oc(=O)n2CCNC(=O)/C=C/c1cc(OC)c(OC)c(OC)c1	51.1	> 100	IC50 (RAW264.7 [6]): 26 µM
COc1ccc2c(c1)oc(=O)n2CCNC(=O)/C=C/c1ccccc1	30.2	> 100	–
COc1ccc2c(c1)oc(=O)n2CCNC(=O)/C=C/c1ccccc1Cl	10.7	> 100	–
COc1ccc2oc(=O)n(CCNC(=O)/C=C/c3ccco3)c2c1	56.2	> 100	–
COc1ccc2c(c1)oc(=O)n2CCNC(=O)/C=C/c1ccc(C)cc1	30.2	> 100	–
COc1ccc2c(c1)oc(=O)n2CCNC(=O)/C=C/c1ccc([N+](=O)[O-])o1	105	38.8	inhibition in vivo at 20 mg/kg (Mus musculus [7]): 47.1%; inhibition (HEK-293T): inactive; Activity (Mus musculus [8]): 9.7 mg; Activity (Mus musculus [9]): 10.5 mg; IC50 [3]: 11.8 µM; Activity (Mus musculus [10]): 7.2 mg; Activity (Mus musculus [11]): 2 mg; IC50 (RAW264.7 [6]): 0.8 µM; inhibition (RAW264.7 [12]): Dose-Dependent Effect; inhibition in vivo at 40 mg/kg (Mus musculus [13]): 56.6%; Activity (Mus musculus [14]): 8.5 mg; Activity (Mus musculus [15]): 2.4 mg; IC50 [4]: 10.3 µM; Activity (RAW264.7 [16]): Active; IC50 [5]: 10.9 µM
COc1ccc2c(c1)oc(=O)n2CCNC(=O)/C=C/c1ccc(F)cc1	4.4	> 100	–
O=C(/C=C/c1ccco1)NCCn1c(=O)oc2ccccc21	63.2	> 100	–
COc1ccc2c(c1)oc(=O)n2CCNC(=O)/C=C/c1cccc(Cl)c1	5.2	> 100	–
COc1ccc2c(c1)oc(=O)n2CCNC(=O)/C=C/c1ccc(O)cc1	45.4	59	–
COc1ccc2c(c1)oc(=O)n2CCNC(=O)/C=C/c1ccc(O)c(OC)c1	7.2	> 100	–
Cc1ccc(-c2cc(C(F)(F)F)nn2-c2ccc(S(N)(=O)=O)cc2)cc1 [CELECOXIB]	62.4	–	IC50 (RAW264.7 [17]): 17.9 µM; inhibition in vivo at 20 mg/kg (Mus musculus [7]): 27.4%; IC50 [18]: 17.9 µM; Activity (Mus musculus [8]): 11.6 mg; IC50 [3]: 14.6 µM; Activity (Mus musculus [10]): 8.3 mg; IC50 [19]: 36 µM; inhibition in vivo at 25 mg/kg (Mus musculus [20]): 30.9%; IC50 (RAW264.7 [6]): 21.1 µM; Activity (Mus musculus [15]): 3.4 mg; IC50 [4]: 13.7 µM; IC50 [5]: 12.2 µM; IC50 [21]: 41.2 µM
COc1ccc2c(c1)oc(=O)n2CCNC(=O)c1ccco1	29.4	> 100	–
COc1ccc2c(c1)oc(=O)n2CCNC(=O)/C=C/c1ccc(Br)o1	25.8	> 100	–
COc1ccc2c(c1)oc(=O)n2CCNC(=O)/C=C/c1cccs1	36.1	> 100	–
O=C(/C=C/c1ccco1)NCCn1c(=O)oc2cc(Br)ccc21	75.3	68.9	–
COc1ccc2c(c1)oc(=O)n2CCNC(=O)/C=C/c1cc2ccccc2o1	35.1	> 100	–
COc1ccc2c(c1)oc(=O)n2CCNC(=O)/C=C/c1ccc(C(F)(F)F)cc1	42	69.5	–
COc1ccc2c(c1)oc(=O)n2CCNC(=O)/C=C/c1ccc(Cl)cc1	38.3	> 100	–
COc1ccc2c(c1)oc(=O)n2CCNC(=O)/C=C/c1ccccc1OC	6.4	80.2	–
COc1ccc2c(c1)oc(=O)n2CCNC(=O)/C=C/c1ccco1	88.4	> 100	Activity (RAW264.7 [22]): Active; inhibition in vivo at 20 mg/kg (Mus musculus [7]): 30.9%; inhibition (HEK-293T): inactive; Activity (Mus musculus [8]): 12.7 mg; Activity (Mus musculus [9]): 11 mg; IC50 [3]: 11.6 µM; Activity (Mus musculus [10]): 9.5 mg; Activity (Mus musculus [11]): 3 mg; IC50 (RAW264.7 [6]): 2.4 µM; inhibition in vivo at 40 mg/kg (Mus musculus [13]): 35.3%; Activity (Mus musculus [14]): 8.1 mg; Activity (Mus musculus [15]): 3.2 mg; IC50 [4]: 8.8 µM; IC50 [5]: 7.5 µM
COc1ccc2c(c1)oc(=O)n2CCNC(=O)/C=C/c1ccoc1	30.3	> 100	–
COc1ccc2c(c1)oc(=O)n2CCNC(=O)/C=C/c1ccccn1	42.8	> 100	–
COc1ccc2c(c1)oc(=O)n2CCNC(=O)/C=C/c1ccc(C)o1	43.2	> 100	–
COc1ccc2c(c1)oc(=O)n2CCNC(=O)/C=C/c1ccc(OC)c(OC)c1	8.9	> 100	–
